# Data as given in PMC5108082, “Pharmacokinetics, toxicity, and cytochrome P450 modulatory activity of plumbagin” (BMC Pharmacology & Toxicology, 2016).
# Test system: CYP3A11
# Settings: mouse, in vivo, po
# Experimental: Mice were divided into four groups (3 male mice each). Mice in the treated groups were fed with plumbagin at a daily oral dose of 25, 12.5, or 6.25 mg/kg body weight (1 mL) for 28 days. The control group received a daily oral dose (1 mL) of 20 % Tween-80 for 28 days. At the end of the experiment period, all animals were sacrificed under ether anesthesia and livers were removed for investigation of the modulatory effect of plumbagin on hepatic CYP1A2 and CYP3A11.
# The liver samples were rinsed with ice-cold, 0.9 %NaCl, homogenized in 50 mM sodium phosphate buffer (pH 7.4) containing 0.1 mM EDTA, and centrifuged at 9000 × g for 20 min. […] Protein concentrations were determined by Bradford protein assay and the suspended microsomes were aliquoted and stored at −80 °C until use. […]
# The incubation mixture of 500 μL containing the selective substrate (20 μM phenacetin and 40 μm nifedipine for CYP1A2 and CYP3A11, respectively), mice liver microsomes (in 100 mM phosphate buffer pH 7.4) was pre-incubated at 37 °C for 5 min in a shaking water bath. […] Concentrations of paracetamol (metabolite of CYP1A2) and oxidized nifedipine (metabolite of CYP3A11) in the incubation mixtures were determined using HPLC with UV detection. […]
structure (smiles),measurement,value
"CC1=CC(=O)c2c(O)cccc2C1=O [plumbagin, 5-hydroxy-2-methyl-1,4-naphthoquinone]",trend of CYP3A11 mRNA expression and enzyme activity,a trend of reduction
